PubChem BioAssay (NCI)
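Cultured in 96-well plates, cells were exposed to test compound for 48 hours across five concentrations. The concentration for 50% growth inhibition is given as GI50. TGI: total growth inhibition.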

Experiments:
Assay in all cases: growth of human tumour cells (NCI), 48 h
HCT-116 colon = test system: HCT-116 colon
SK-OV-3 ovarian = test system: SK-OV-3 ovarian
NCI-H522 lung = test system: NCI-H522 lung
SK-MEL-28 melanoma = test system: SK-MEL-28 melanoma
PC-3 prostate = test system: PC-3 prostate
MDA-N = test system: MDA-N
NCI-H460 lung = test system: NCI-H460 lung
SK-MEL-2 melanoma = test system: SK-MEL-2 melanoma
HS 578T breast = test system: HS 578T breast

SMILES	TGI (HCT-116 colon)	TGI (SK-OV-3 ovarian)	TGI (NCI-H522 lung)	TGI (SK-MEL-28 melanoma)	TGI (PC-3 prostate)	TGI (MDA-N)	TGI (NCI-H460 lung)	TGI (SK-MEL-2 melanoma)	TGI (HS 578T breast)	GI50 (HCT-116 colon)	GI50 (NCI-H522 lung)	GI50 (SK-MEL-28 melanoma)	GI50 (HS 578T breast)	GI50 (PC-3 prostate)	GI50 (NCI-H460 lung)	GI50 (SK-OV-3 ovarian)	GI50 (SK-MEL-2 melanoma)
COc1c(-c2cc(C)c(Cl)c(=O)[nH]2)c(O)c(OC)c2occc12	> 100 µM	> 100 µM	> 100 µM	> 100 µM	> 100 µM	> 100 µM	> 100 µM	> 100 µM									
Brc1ccc2c(-c3nc(-c4c[nH]c5ccccc45)cs3)c[nH]c2c1	> 100 µM	> 100 µM	> 100 µM	> 93.6 µM	> 91.2 µM	> 100 µM	> 100 µM	> 84.3 µM	> 100 µM								
CC1(CCCC2(C)CCNC2=O)OCCO1 (stereo unspecified)	> 10 µM	> 10 µM		> 10 µM	> 10 µM	> 10 µM	> 10 µM	> 10 µM	> 10 µM								
CCN(CC)CCCCCCCCNc1c2ccc(Cl)cc2nc2ccc(OC)cc12	3.14 µM		3.81 µM	3.63 µM	4.06 µM		2.56 µM		> 100 µM	1.36 µM	1.8 µM	1.95 µM	2.82 µM	1.64 µM	0.883 µM		
COc1c2occc2c(OC)c2c(=O)c(S(=O)(=O)NC(=O)Nc3ccc(Cl)cc3)coc12	> 10 µM	> 10 µM	> 10 µM	> 10 µM	> 10 µM	> 10 µM	> 10 µM	> 10 µM	> 10 µM								
N#CCCNCCN(CCN(C(=O)Nc1ccccc1)c1ccccc1)C(=O)Nc1ccccc1	> 100 µM	> 100 µM	54.4 µM	67.3 µM	> 100 µM	> 100 µM	> 100 µM	> 100 µM	> 100 µM								
COc1cc2c(cc1OCCCC(=O)Nc1cc(C(=O)Nc3cc(C(=O)Nc4cc(C(=O)NCCCN(C)C)n(C)c4)n(C)c3)n(C)c1)N=C[C@@H]1CCCN1C2=O	3.45 µM	28.4 µM	0.427 µM	4.66 µM	6 µM	3.8 µM	17.6 µM	6.79 µM	> 25.2 µM								
C=CCNC1=C2C[C@@H](C)C[C@@H](OC)C(OC(=O)CCCN(C)C)[C@H](C)/C=C(\C)[C@@H](OC(N)=O)[C@H](OC)/C=C\C=C(/C)C(=O)NC(=CC1=O)C2=O (stereo partly specified)	20.4 µM	12.6 µM	20.5 µM	27.4 µM	17.2 µM	19.8 µM	13.9 µM	25.5 µM	41.7 µM								
CCSSCS(C)(=O)=O	> 100 µM	> 100 µM	40 µM	> 100 µM	> 100 µM	> 100 µM	> 100 µM	> 100 µM	> 100 µM								
O=C(CCc1cccc(O)c1)NCCc1cccc(O)c1	> 100 µM	> 100 µM	> 100 µM	> 100 µM	> 100 µM	> 100 µM	> 100 µM	> 100 µM	> 100 µM								
CC(=O)Nc1ccc2c(C(=O)O)c(C)c(=O)[nH]c2n1	> 100 µM	> 100 µM	> 100 µM		> 100 µM	> 100 µM	> 100 µM	> 100 µM	> 100 µM								
COc1ccc(-c2oc3ccc(C)cc3c(=O)c2O)cc1	> 100 µM	> 100 µM	> 100 µM	> 100 µM	> 100 µM	> 100 µM		> 100 µM	> 100 µM								
COc1ccc(C2SC(N)=Nc3c2c(C)nn3C(=O)c2ccncc2)cc1 (stereo unspecified)	> 100 µM	> 100 µM		> 100 µM	> 100 µM	> 100 µM	> 100 µM	> 100 µM	> 100 µM								
CSc1nc2ccccc2c(=O)n1/N=C1\C(=O)N(CN2CCOCC2)c2ccc(Cl)cc21	> 100 µM	> 100 µM	89.8 µM	> 100 µM	> 100 µM	> 100 µM	43.4 µM	51.6 µM	> 100 µM								
COC12C=C/C(=C(/C(=O)OCc3ccncn3)C(=O)CCCCCCCCC3(OC)C=C/C(=C(/C(=O)OCc4ccncn4)C(=O)CCCCCCCC1)O3)O2	1.09 µM	3.75 µM	0.545 µM	2.51 µM	1.09 µM		1.02 µM	5.55 µM	5.11 µM	0.266 µM	0.207 µM	0.317 µM	0.402 µM	0.305 µM	0.319 µM	0.409 µM	0.428 µM
Cc1nc2c(cc1C(=O)NN)c(=O)n(C)c(=O)n2C	> 100 µM	> 100 µM		> 100 µM	> 100 µM	> 100 µM	> 100 µM	> 100 µM									
COc1ccc2c(c1)OCC1(O)Cc3ccccc3OC21 (stereo unspecified)	> 100 µM	> 100 µM	> 100 µM		> 100 µM	> 100 µM		> 100 µM									
CC(=O)NC1(C)CCC(C(C)(C)NC(C)=O)CC1 (stereo unspecified)	> 100 µM	> 100 µM		> 100 µM	> 100 µM	> 100 µM	> 100 µM		> 100 µM								
CCNc1nc(N)c(C(=O)c2ccc(Cl)cc2)s1	> 100 µM	> 100 µM		> 100 µM	> 100 µM	> 100 µM	> 100 µM	> 100 µM	36.9 µM								
C1=C[C@@H]2c3ccc4cnccc4c3NC[C@@H]2C1	> 100 µM	> 100 µM		> 100 µM	> 100 µM	> 100 µM	> 100 µM		> 100 µM								
CC1(C)CCC[C@]2(C)[C@@H]1CC[C@@]13O[C@@H]1C1=C(CO)C(=O)O[C@]14O[C@@H]4[C@@H]23	26.6 µM	31.7 µM	22 µM	31.4 µM	25.5 µM	20.1 µM	41 µM	31.6 µM									
COc1cc(/C=C2\C[C@H]3[C@@H]4CC=C5C[C@@H](N6CCCC6)CC[C@]5(C)[C@H]4CC[C@]3(C)[C@H]2O)cc(OC)c1OC	27.6 µM	35.9 µM	26.7 µM	35 µM	28.8 µM		13.6 µM	35.9 µM	25.2 µM								
